Source: US9914732B2, “Diazabicyclo[4.3.1]decane derivatives for treatment of psychiatric disorders” (Max-Planck-Gesellschaft zur Forderung der Wissenschaften …, priority 2014, dated 2018)
pKi: −log10 of the molar value.

Legend:
FKBP51 = molecular target: T1, FKBP51 (Homo sapiens, UniProt Q13451); experiment: Fluorescence polarization (FP) assay, binding to the FK506-binding domain of FKBP51; conditions: FK506-binding domain of FKBP51 (FKBP51FK1), competition with fluorescent ligand 2b
T1 sequence (Q13451 42-130 limits assumed): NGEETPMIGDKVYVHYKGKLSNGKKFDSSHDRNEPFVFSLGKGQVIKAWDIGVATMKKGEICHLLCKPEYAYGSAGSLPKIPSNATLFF
Description: (§1) In the present invention, in vitro fluorescence polarization assays with the compounds of the general formula (I) were performed to determine the binding affinities to FKBP51 and FKBP52 or to the isolated FK506-binding domains of FKBP51 and FKBP52 ([…]). Binding to the isolated FK506-binding domains is reliably indicative of binding to the full length proteins. The affinities for the isolated FK506-binding domains and for full-length FKBP51 or FKBP52 are the same for all compounds tested so far (Kozany et al, ChemBioChem 2009, 10, 1402-1410).
(§2) Example 11: Fluorescence Polarization (FP) Assays
(§3) In-vitro fluorescence polarization assays were performed to determine the binding affinities for FKBP51 and 52 according to a literature procedure (Kozany, C.; Marz, A.; Kress, C.; Hausch, F., Fluorescent probes to characterise FK506-binding proteins. Chembiochem 2009, 10, (8), 1402-10).
(§4) For fluorescence polarization assays the fluorescent ligand 2b was dissolved in HEPES (20 mm, pH 8), Triton-X100 (0.01%), at double the concentration required for the final sample. The target protein was also diluted in this assay buffer at double the highest concentration required for the final sample. This protein stock was used for a 1:1 serial dilution.
(§5) The fluorescent ligand 2b was diluted in assay buffer to a concentration double the final concentration (20 nM 2b). The inventive compound was dissolved in DMSO to reach a 100-times concentrated stock solution. This was used for a 1:1 serial dilution in DMSO. Every sample of this serial dilution was diluted by a factor of 50 in assay buffer supplemented with ligand 2b to achieve a 2× concentrated mixture of ligand 2b and the inventive compound. To this competitive ligand double the protein concentration for 2b assay: FKBP51FK1 560 nM (2×280 nM) or FKBP52FK1 800 nM (2×400 nM) diluted in assay buffer was added.
(§6) The samples were transferred to black 384-well assay plates (No.: 3575; Corning Life Sciences). After incubation at room temperature for 30 min the fluorescence anisotropy was measured (GENios Pro, Tecan, Männedorf, Switzerland) by using an excitation filters of 485/20 nm and emission filters of 535/25 nm. The binding assays were performed in duplicates in the plate format.
(§7) The competition curves were analyzed by using SigmaPlot9. Data were fitted to a four parameter logistic curve to deduce the IC50 values. For the analysis of K1 values, data were fitted to the following equation (Z. X. Wang, FEBS Lett. 1995, 360, 111-114). A=(Amax−Amin)/[L]t×(([L]t×((2×((Klig+Kcomp+[L]t+[I]t−[R]t)^2−3×(Kcomp×([L]t−[R]t)+Klig×([I]t−[R]t)+[…]))^0.5×COS(ARCCOS((−2×(Klig+Kcomp+[L]t+[I]t−[R]t)^3+9×(Klig+Kcomp+[L]t+[I]t−[R]t)×(Kcomp×([L]t−[R]t)+Klig×([I]t−[R]t)+Klig×Kcomp)−27×(−1×Klig×Kcomp×[R]t))/(2×((((Klig+Kcomp+[L]t+[I]t−[R]t)^2−3×(Kcomp×([L]t−[R]t)+Klig×([I]t−[R]t)+Klig×Kcomp))^3)^0.5)))/3))−(Klig+Kcomp+[L]t+[I]t−[R]t)))/((3×Klig)+((2×((Klig+Kcomp+[L]t+[I]t−[R]t)^2−3×(Kcomp×([L]t−[R]t)+Klig×([I]t−[R]t)+Klig×Kcomp))^0.5×COS(ARCCOS((−2×(Klig+Kcomp+[L]t+[I]t−[R]t)^3+9×(Klig+Kcomp+[L]t+[I]t−[R]t)×(Kcomp×([L]t−[R]t)+Klig×([I]t−[R]t)+Klig×Kcomp)−27×(−1×Klig×Kcomp×[R]t))/(2×((((Klig+Kcomp+[L]t+[I]t−[R]t)^2−3×(Kcomp×([L]t−[R]t)+Klig×([I]t−[R]t)+Klig×Kcomp))^3)^0.5)))/3))−(Klig+Kcomp+[L]t+[I]t−[R]t)))+Amin
(§8) In this equation Klig and Kcomp stand for the Kd values of the used tracer or competing inhibitor, [I]t is referring to the total concentration of the titrated inhibitor.

FKBP52 = molecular target: T2, FKBP52 (Homo sapiens, UniProt Q02790); experiment: Fluorescence polarization (FP) assay, binding to the FK506-binding domain of FKBP52; conditions: FK506-binding domain of FKBP52 (FKBP52FK1), competition with fluorescent ligand 2b
T2 sequence (Q02790 50-138 limits assumed): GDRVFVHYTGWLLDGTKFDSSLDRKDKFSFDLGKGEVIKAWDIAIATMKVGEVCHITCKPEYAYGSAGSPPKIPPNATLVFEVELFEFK
Description: as §1, §2, §3, §4, §5, §6, §7, §8

O=C1[C@@H]2CCC[C@H]([C@@H](CF)CN1Cc1ccccn1)N2S(=O)(=O)c1cc(Cl)cc(Cl)c1 [Compound M4, (1S,5S,6R)-10-((3,5-dichlorophenyl)sulfonyl)-5-(fluoromethyl)-3-(pyridin-2-ylmethyl)-3,10-diazabicyclo[4.3.1]decan-2-one]
pKi (FKBP51): ≥ 7.00 | pKi (FKBP52): ≥ 7.00

C=CC1CN(Cc2ccccn2)C(=O)C2CCCC1N2S(=O)(=O)c1cccc(F)c1 (stereo in doubt) [Compound K15, (1S,5R,6R)-10-((3-fluorophenyl)sulfonyl)-3-(pyridin-2-ylmethyl)-5-vinyl-3,10-diazabicyclo[4.3.1]decan-2-one]
pKi (FKBP51): 6.30 to 7.00 | pKi (FKBP52): 6.30 to 7.00

COC[C@H]1CN(Cc2cnn[nH]2)C(=O)[C@@H]2CCC[C@H]1N2S(=O)(=O)c1cccc(C(N)=O)c1 [Compound N19, 3-(((1S,5S,6R)-3-((1H-1,2,3-triazol-5-yl)methyl)-5-(methoxymethyl)-2-oxo-3,10-diazabicyclo[4.3.1]decan-10-yl)sulfonyl)benzamide]
pKi (FKBP51): ≥ 7.00 | pKi (FKBP52): ≥ 7.00

N[C@@H]1CNC(=O)[C@@H]2CCC[C@H]1N2S(=O)(=O)c1cc(Cl)cc(Cl)c1 [Compound H1.2, (1S,5R,6R)-5-amino-10-((3,5-dichlorophenyl)sulfonyl)-3,10-diazabicyclo[4.3.1]decan-2-one]
pKi (FKBP51): 5.30 to 6.00 | pKi (FKBP52): 5.30 to 6.00

C=CC1CN(Cc2ccccn2)C(=O)C2CCCC1N2S(=O)(=O)c1ccc(NC(C)=O)c(Br)c1 (stereo in doubt) [Compound K20, N-(2-bromo-4-(((1S,5R,6R)-2-oxo-3-(pyridin-2-ylmethyl)-5-vinyl-3,10-diazabicyclo[4.3.1]decan-10-yl)sulfonyl)phenyl)acetamide]
pKi (FKBP51): 6.30 to 7.00 | pKi (FKBP52): 6.30 to 7.00

COc1ccc(OCCN2C[C@H](C(C)O)C3CCCC(C2=O)N3S(=O)(=O)c2cc(Cl)cc(Cl)c2)cc1OC (stereo in doubt) [Compound D6, (1S,5S,6R)-10-((3,5-dichlorophenyl)sulfonyl)-3-(2-(3,4-dimethoxyphenoxy)ethyl)-5-((R)-1-hydroxyethyl)-3,10-diazabicyclo[4.3.1]decan-2-one]
pKi (FKBP51): ≥ 7.00 | pKi (FKBP52): ≥ 7.00

O=C1[C@@H]2CCC[C@H]([C@H](CO)CN1CCCO)N2S(=O)(=O)c1cc(Cl)cc(Cl)c1 [Compound J5, (1S,5R,6R)-10-((3,5-dichlorophenyl)sulfonyl)-5-(hydroxymethyl)-3-(3-hydroxypropyl)-3,10-diazabicyclo[4.3.1]decan-2-one]
pKi (FKBP51): 6.00 to 6.30 | pKi (FKBP52): 6.00 to 6.30

C#CCN1C[C@H](COC)[C@H]2CCC[C@@H](C1=O)N2S(=O)(=O)c1nc2ccccc2[nH]1 [Compound N16, (1S,5S,6R)-10-((1H-benzo[d]imidazol-2-yl)sulfonyl)-5-(methoxymethyl)-3-(prop-2-yn-1-yl)-3,10-diazabicyclo[4.3.1]decan-2-one]
pKi (FKBP51): 6.30 to 7.00 | pKi (FKBP52): 6.30 to 7.00

C=CC1CN(Cc2ccccn2)C(=O)C2CCCC1N2S(=O)(=O)c1cccc(Br)c1 (stereo in doubt) [Compound K5, (1S,5R,6R)-10-((3-bromophenyl)sulfonyl)-3-(pyridin-2-ylmethyl)-5-vinyl-3,10-diazabicyclo[4.3.1]decan-2-one]
pKi (FKBP51): ≥ 7.00 | pKi (FKBP52): ≥ 7.00

O=C1[C@@H]2CCC[C@H]([C@H](CO)CN1Cc1ccccn1)N2S(=O)(=O)c1cc(Cl)cc(Cl)c1 [Compound J8, (1S,5R,6R)-10-((3,5-dichlorophenyl)sulfonyl)-5-(hydroxymethyl)-3-(pyridin-2-ylmethyl)-3,10-diazabicyclo[4.3.1]decan-2-one]
pKi (FKBP51): ≥ 7.00 | pKi (FKBP52): ≥ 7.00

C=CC1CN(Cc2ccccn2)C(=O)C2CCCC1N2S(=O)(=O)c1ccccc1 (stereo in doubt) [Compound K13, (1S,5R,6R)-10-(phenylsulfonyl)-3-(pyridin-2-ylmethyl)-5-vinyl-3,10-diazabicyclo[4.3.1]decan-2-one]
pKi (FKBP51): 6.00 to 6.30 | pKi (FKBP52): 6.00 to 6.30

O=C1NC[C@H](O)[C@H]2CCC[C@@H]1N2S(=O)(=O)c1cc(Cl)cc(Cl)c1 [Compound G6, (1S,5S,6R)-10-((3,5-dichlorophenyl)sulfonyl)-5-hydroxy-3,10-diazabicyclo[4.3.1]decan-2-one]
pKi (FKBP51): 6.00 to 6.30 | pKi (FKBP52): 6.30 to 7.00

C=C[C@@H]1CN(Cc2ccccn2)C(=O)[C@@H]2CCC[C@H]1N2S(=O)(=O)c1cc(Cl)cc(C(N)=O)c1 [Compound K19, 3-chloro-5-(((1S,5R,6R)-2-oxo-3-(pyridin-2-ylmethyl)-5-vinyl-3,10-diazabicyclo[4.3.1]decan-10-yl)sulfonyl)benzamide]
pKi (FKBP51): 6.30 to 7.00 | pKi (FKBP52): 6.30 to 7.00

CNC[C@H]1CN(CCOC)C(=O)[C@@H]2CCC[C@H]1N2S(=O)(=O)c1cc(Cl)cc(Cl)c1 [Compound B12, (1S,5S,6R)-10-((3,5-dichlorophenyl)sulfonyl)-3-(2-methoxyethyl)-5-((methylamino)methyl)-3,10-diazabicyclo[4.3.1]decan-2-one]
pKi (FKBP51): 6.30 to 7.00 | pKi (FKBP52): 6.30 to 7.00

O=C1C2CCCC(C(CO)CN1CCO)N2S(=O)(=O)c1cc(Cl)cc(Cl)c1 (stereo in doubt) [Compound C1, (1S,5R,6R)-10-((3,5-dichlorophenyl)sulfonyl)-3-(2-hydroxyethyl)-5-(hydroxymethyl)-3,10-diazabicyclo[4.3.1]decan-2-one]
pKi (FKBP51): ≥ 7.00 | pKi (FKBP52): ≥ 7.00

O=C1[C@@H]2CCC[C@H]([C@@H](C(F)F)CN1Cc1ccccn1)N2S(=O)(=O)c1cc(Cl)cc(Cl)c1 [Compound M3, (1S,5S,6R)-10-((3,5-dichlorophenyl)sulfonyl)-5-(difluoromethyl)-3-(pyridin-2-ylmethyl)-3,10-diazabicyclo[4.3.1]decan-2-one]
pKi (FKBP51): ≥ 7.00 | pKi (FKBP52): ≥ 7.00

COC[C@H]1CN(Cc2cnn[nH]2)C(=O)[C@@H]2CCC[C@H]1N2S(=O)(=O)c1cccc(F)c1 [Compound N17, (1S,5S,6R)-3-((1H-1,2,3-triazol-5-yl)methyl)-10-((3-fluorophenyl)sulfonyl)-5-(methoxymethyl)-3,10-diazabicyclo[4.3.1]decan-2-one]
pKi (FKBP51): ≥ 7.00 | pKi (FKBP52): ≥ 7.00

C=CC1CN(Cc2c[nH]nn2)C(=O)C2CCCC1N2S(=O)(=O)c1cc(Cl)cc(Cl)c1 (stereo in doubt) [Compound J13, (1S,5R,6R)-3-((1H-1,2,3-triazol-4-yl)methyl)-10-((3,5-dichlorophenyl)sulfonyl)-5-vinyl-3,10-diazabicyclo[4.3.1]decan-2-one]
pKi (FKBP51): ≥ 7.00 | pKi (FKBP52): ≥ 7.00

COC[C@H]1CN(Cc2cnn[nH]2)C(=O)[C@@H]2CCC[C@H]1N2S(=O)(=O)c1cccnc1 [Compound N25, (1S,5S,6R)-3-((1H-1,2,3-triazol-5-yl)methyl)-5-(methoxymethyl)-10-(pyridin-3-ylsulfonyl)-3,10-diazabicyclo[4.3.1]decan-2-one]
pKi (FKBP51): ≥ 7.00 | pKi (FKBP52): ≥ 7.00

CN(C)C[C@H]1CN(Cc2ccccn2)C(=O)[C@@H]2CCC[C@H]1N2S(=O)(=O)c1cc(Cl)cc(Cl)c1 [Compound M2, (1S,5S,6R)-10-((3,5-dichlorophenyl)sulfonyl)-5-((dimethylamino)methyl)-3-(pyridin-2-ylmethyl)-3,10-diazabicyclo[4.3.1]decan-2-one]
pKi (FKBP51): ≥ 7.00 | pKi (FKBP52): ≥ 7.00
